Laboratory results reported in PMC7408547, “Bivalent Inhibitor with Selectivity for Trimeric MMP-9 Amplifies Neutrophil Chemotaxis and Enables Functional Studies on MMP-9 Proteoforms” (Cells, 2020).
Where “and” joins values, the source holds several entries; their conditions need not be identical. Identical values can stand only once.

Experiments:
MMP-2 = molecular target: T1, MMP-2 (Homo sapiens, UniProt P08253); test: MMP-2 OmniMMP peptide assay; format: biochemical; conditions: OmniMMP substrate peptide
T1 construct: purchased R & D systems; host or cells: CHO cells
T1 sequence (P08253 110-660): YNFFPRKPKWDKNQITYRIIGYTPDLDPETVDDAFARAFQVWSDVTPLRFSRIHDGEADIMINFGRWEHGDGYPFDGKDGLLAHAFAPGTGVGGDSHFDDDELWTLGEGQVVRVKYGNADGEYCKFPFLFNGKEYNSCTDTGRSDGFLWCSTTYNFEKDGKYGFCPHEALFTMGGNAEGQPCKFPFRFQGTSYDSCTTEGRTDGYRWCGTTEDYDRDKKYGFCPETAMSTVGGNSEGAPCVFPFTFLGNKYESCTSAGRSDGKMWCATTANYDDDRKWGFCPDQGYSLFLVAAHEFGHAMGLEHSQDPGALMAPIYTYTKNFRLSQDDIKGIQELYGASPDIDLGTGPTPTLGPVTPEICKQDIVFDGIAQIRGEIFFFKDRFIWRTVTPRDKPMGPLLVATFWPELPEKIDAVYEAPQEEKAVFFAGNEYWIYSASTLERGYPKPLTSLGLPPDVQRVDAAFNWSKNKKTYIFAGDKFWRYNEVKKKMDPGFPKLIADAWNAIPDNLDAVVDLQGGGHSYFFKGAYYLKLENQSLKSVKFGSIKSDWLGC
Experimental: Compounds 5 and 7 were synthesized as previously reported. Full-length human proMMP-9 was produced by recombinant expression in Sf9 insect cells and purified by gelatin-Sepharose chromatography as previously described. Stable full-length proMMP-9 monomers and trimers were separated by glycerol gradient ultracentrifugation as previously described. ProMMP-9 mixture and the separated monomers and trimers were activated by incubation with the catalytic domain of MMP-3 (cat. No. 444217, Merck Millipore, Darmstadt, Germany) as previously described. Activation of proMMP-9 was confirmed by a band shift of ±10 kDa, corresponding to the removal of the auto-inhibitory propeptide domain and by detection of gelatinolytic activity with a previously described gelatin degradation assay. […] ADAM17/TACE (Sf 21 (baculovirus)-derived, R & D systems, Minneapolis, MO, USA) was diluted and evaluated in 25 mM Tris, 2.5 μM ZnCl2, 0.005% Brij-35, pH 9.0. All stocks of the compounds were evaluated for the presence of endotoxin using the EndoZyme II assay (Hyglos bioMérieux, Bernried am Starnberger See, Germany). […]
To determine the inhibition of gelatinolytic activity, we used a previously optimized gelatin degradation assay. […] Proteolytic activity was determined by linear regression of the fluorescence curve and the percentage inhibition was calculated through comparison with the positive control (no inhibitors). […]

U-87 cell line = test: U-87 cell proliferation (confluence, Incucyte); format: cell-based; conditions: up to a concentration of 20 µM; 17 h
Experimental: Toxicity of compounds 5 and 7 was evaluated in vitro on the U-87 cell line. Briefly, U-87 cells were seeded in 96-well plates (cat. No. 92096, TPP Techno Plastic Products, Trasadingen, Switzerland) at 2000 cells/well in DMEM FluoroBrite containing 10% FBS and incubated for 24 h. Cells were washed and further grown in DMEM FluoroBrite with 5% KnockOut™ Serum Replacement (Gibco, Waltham, MA, USA). Compounds 5 and 7 were added to the wells in a 1:2 dilution series starting at 20 µM and ending at 0.16 µM. To evaluate the effect of the compound on cell growth, confluence was determined every hour for 17h using the Incucyte® S3 Live-Cell Analysis System (Sartorius, Göttingen, Germany). Next, cells were stained with the LIVE/DEAD™ Viability/Cytotoxicity Kit for mammalian cells (Invitrogen, Carlsbad, CA, USA; cat. # L3224) and cell viability was evaluated. Data were normalized to the mean confluence of wells containing no inhibitors. To measure the stability of the compounds, fresh blood was collected from heathy mice by cardiac puncture with a heparin-coated needle and syringe and 30UI/mL heparin was added. Next, compound 5, compound 7 or vehicle (DMSO) was added to the blood at a final concentration of 500 µM and incubated at 37 °C. […] Background inhibition was subtracted and results were expressed as percentage inhibition.

SMILES: CC(C)[C@H](C(=O)O)N(CCNC(=O)c1cccc(C(=O)NCCN([C@@H](C(=O)O)C(C)C)S(=O)(=O)c2ccc(-c3ccccc3)cc2)c1)S(=O)(=O)c1ccc(-c2ccccc2)cc1 [Compound 7]
- IC50 (MMP-2): ~5 nM and 5 nM
- effect on proliferation of U-87 cells (U-87 cell line): did not reduce proliferation

SMILES: CC(C)[C@H](C(=O)O)N(CCNC(=O)c1ccccc1)S(=O)(=O)c1ccc(-c2ccccc2)cc1 [Compound 5]
- IC50 (MMP-2): 1030 nM
- effect on proliferation of U-87 cells (U-87 cell line): did not reduce proliferation
